Common to all, as to assay: NCI-60 cell line screen, 48 h
Test [1] has as its system 786-0 renal.
Test [2] relates to U251 CNS.
For test [3], the system named is SK-MEL-28 melanoma.
The subject of test [4] is NCI-H460 lung.
In test [5] the test system is HT29 colon.
Test [6] has as its system RPMI-8226 leukemia.
For test [7], the system named is ACHN renal.
Test [8] concerns UACC-257 melanoma.
Test [9] deals with HOP-62 NSCLC.
Test [10] relates to MDA-MB-231 breast.

This is an account of results in PubChem BioAssay (NCI).

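1) Cells in 96-well plates. 2) Compound, 48 h, 5 concentrations. 3) Linear interpolation between surrounding doses. 4) Unreached endpoint = highest concentration. The concentration for 50% growth inhibition is given as GI50. TGI: total growth inhibition.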 A value given as a limit tells only on which side of the number the result lay.

For `CCOC(=O)C/C(N)=C(\C#N)C(=O)OCC`, the TGI in test [1], in test [2], in [3], in test [4], in test [5] and in test [6] was greater than 100 µM in each case. The molecule further yielded a TGI in test [7] greater than 100 µM.
Take `COC(=O)CSc1n[nH]c(-c2ccccc2)n1`: the TGI in test [1], in [8], in test [2], in test [3], in test [4] and in test [9] was greater than 100 µM in each case. Further, the TGI in test [5], in [6] and in test [7] was greater than 100 µM throughout.
Take `COc1ccc(/C=c2\sc3nnc(CCC(=O)Nc4cccc(C(F)(F)F)c4)n3c2=O)cc1`: the TGI in test [1], in test [8], in test [2], in test [3], in test [4] and in [9] was greater than 100 µM in each case. Also, the TGI was greater than 100 µM in [5], greater than 95.5 µM in test [6] and greater than 100 µM in [7].
`c1cc2ccc3cc2cc1CNCCOCCNCc1ccc2ccc(cc2c1)CNCCOCCNC3`: the GI50 in [1], in test [8], in [2], in test [3], in test [10] and in test [4] was greater than 100 µM in each case. Besides, the GI50 in test [9], in test [5] and in [7] was greater than 100 µM throughout. Besides, the TGI in [1], in test [8], in test [2], in [3], in test [10] and in test [4] was greater than 100 µM each time. In addition, the TGI in test [9], in [5] and in test [7] was greater than 100 µM in each case.
Consider `COc1ccc2oc(-c3cc4cc(OC)ccc4o3)cc2c1`, for which the TGI in [1], in [8], in test [3], in test [4], in test [9] and in [6] was greater than 100 µM each time. For the same molecule, in test [7], the TGI was greater than 100 µM.
Take `COc1cc(C2CC(=O)c3c(C)nn(-c4nc5ccccc5[nH]4)c3C2)cc(OC)c1OC` (stereo not given): the GI50 in test [1] was 3.34 µM; in test [8] it was greater than 100 µM; in test [3] it was greater than 100 µM; in [9], 3.61 µM; in test [5] it was greater than 100 µM; in test [6], greater than 100 µM. For the same molecule, the TGI in [1], in test [8], in test [3], in test [9], in test [5] and in test [6] was greater than 100 µM in each case.
As to `CCOc1ccc(/C=N\N2C(=O)c3ccccc3C2=O)cc1`, the TGI in test [1], in test [8], in [3], in test [4], in [9] and in test [5] was greater than 100 µM each time. The TGI in test [6] and in [7] was greater than 100 µM each time.
Consider `O=c1[nH]cc(CO)c(=O)[nH]1`, for which the GI50 in test [1], in [8], in [2], in [3], in test [10] and in [4] was greater than 100 µM in each case. Besides, the GI50 in [9], in test [5] and in test [7] was greater than 100 µM in each case. Also, the TGI in test [1], in test [8], in [2], in test [3], in test [10] and in test [4] was greater than 100 µM in each case. Besides, the TGI in [9], in test [5] and in test [7] was greater than 100 µM in each case.
Take `CN=c1ss/c(=N\C(=S)N(C)C)n1C1CCCCC1`: the TGI was greater than 10 µM in test [1]; greater than 31.6 µM in [8]; greater than 31.6 µM in test [2]; greater than 31.6 µM in test [3]; greater than 31.6 µM in test [4]; greater than 100 µM in [9]. Besides, the TGI in test [5] is greater than 31.6 µM; in [6] it was greater than 100 µM; in test [7] it was greater than 31.6 µM.
Regarding `COc1cc(-c2ccccc2)c(OC)cc1CCl`, the TGI in test [1], in [8], in [2], in test [4], in test [9] and in test [5] was greater than 100 µM each time. In addition, the TGI in [6] and in test [7] was greater than 100 µM in each case.
For the molecule `CCOP(=O)(CCN1CCN(CCCCCOc2cc3c(cc2OC)C(=O)N2CCC[C@H]2C=N3)CC1)OCC`, the GI50 was 12.5 µM in test [1]; 15.8 µM in test [8]; 6.35 µM in [3]; 4.55 µM in test [10]; 6.14 µM in test [4]; 23 µM in test [9]. Further, the GI50 in test [5] was 6.84 µM; in test [7], 18.5 µM. Also, the TGI is greater than 100 µM in test [1]; 37.4 µM in [8]; 20.4 µM in test [3]; greater than 100 µM in test [10]; 46.1 µM in test [4]; greater than 100 µM in test [9]. Further, the TGI is greater than 100 µM in [5] and 50.4 µM in [7].
Consider `CC(C)(C)c1cc(Oc2ccc(C#N)c(C#N)c2)cc(C(C)(C)C)c1`, for which the TGI in test [1], in test [8], in [2], in test [3], in test [4] and in test [9] was greater than 100 µM throughout. The TGI in [5], in test [6] and in [7] was greater than 100 µM throughout.
Take `CN(C(=O)C12C3C4C1C1C2C3C41C(=O)N(C)C(C)(C)C)C(C)(C)C` (stereo not given): the TGI in test [1], in [2], in test [3], in test [9], in [5] and in [7] was greater than 50 µM each time.
Take `Cc1ccc(C)c(NC(=O)C(=O)CC(=O)c2cccc3ccccc23)c1`: the TGI in test [1], in [8], in [2], in test [3], in test [4] and in test [9] was greater than 100 µM throughout. In addition, the TGI in test [5], in [6] and in test [7] was greater than 100 µM in each case.
On to `CC(C)(C)C1CCP(=O)(c2ccccc2)CC1` (stereo not given), for which the TGI in test [1], in [8], in test [2], in [3], in test [4] and in test [9] was greater than 100 µM throughout. Also, the TGI in [5], in [6] and in test [7] was greater than 100 µM each time.
Turning to `COC(=O)[C@H]1CC(=O)C=C2CCCC21` (stereo not given in full), the TGI in test [1], in [8], in test [2], in test [3], in [4] and in [9] was greater than 100 µM each time. Further, the TGI in [5] and in test [6] was greater than 100 µM throughout.
Take `O=C(O)/C(=C/c1ccccc1[N+](=O)[O-])c1cccs1`: the TGI in test [1], in [8], in test [2], in test [3], in test [4] and in test [9] was greater than 100 µM each time. The TGI in test [5], in [6] and in test [7] was greater than 100 µM each time.
As to `CC1=C(C(=O)Nc2cccc(C(F)(F)F)c2)C(c2ccccc2F)C(C(=O)Nc2cccc(C(F)(F)F)c2)=C(C)N1`, the TGI in [1] was found to be 19.4 µM; in [8] it was 22.1 µM; in test [2], 27.1 µM; in test [3] it was 23.7 µM; in test [4] it was 21.8 µM; in [9], 26.2 µM. For the same molecule, the TGI stood at 11.5 µM in test [5], 10.1 µM in [6] and 19 µM in test [7].
Consider `CC(=O)n1cc(CC(C)O)c(=O)[nH]c1=O` (stereo not given), for which the TGI in [1], in test [8], in [2], in test [3], in test [4] and in test [9] was greater than 100 µM throughout. The TGI in test [5], in test [6] and in test [7] was greater than 100 µM in each case.
In the case of `NC(=O)c1ccccc1NC(=O)C(=O)Nc1n[nH]c(N)n1`, the TGI in [1], in test [8], in test [2], in test [4], in [9] and in [5] was greater than 100 µM in each case. Further, the TGI in test [6] and in [7] was greater than 100 µM each time.
Consider `Cc1nn2c(=O)n(-c3cccc(-n4nnc5c(-c6ccccc6)c(C)nn5c4=O)c3C)nnc2c1-c1ccccc1`, for which the TGI in test [1] was greater than 100 µM; in test [8], 70.2 µM; in test [2] it was greater than 100 µM; in [4], 50.1 µM; in test [9], greater than 100 µM; in test [5], greater than 100 µM. Besides, the TGI in test [6] was found to be 96.4 µM; in test [7], 76.7 µM.
With `Cc1ccc(SC2C(C)(C)N(C(C)C)P2(=O)N(C(C)C)C(C)C)cc1` (stereo not given), the TGI in [1] was greater than 100 µM; in [8], 67.5 µM; in [2], greater than 100 µM; in [3] it was greater than 100 µM; in [4], greater than 67.6 µM; in test [9] it was greater than 100 µM. Moreover, the TGI is greater than 100 µM in [5], 36.8 µM in test [6] and greater than 100 µM in [7].
As to `Cc1ccc(S(=O)(=O)Nc2cccc(C)c2C)cc1`, the TGI in test [1] was greater than 100 µM; in test [8], greater than 100 µM; in [2] it was 79.9 µM; in [3], 81.5 µM; in test [4], greater than 100 µM; in test [9], greater than 100 µM. Also, the TGI in test [5] and in test [6] was greater than 100 µM each time.
Regarding `O=S1c2ccccc2N=C(c2ccc3ccccc3c2)CC1c1ccccc1F` (stereo not given), the TGI in test [1], in test [8], in [2], in test [3], in test [4] and in test [9] was greater than 100 µM in each case. The TGI in test [5], in test [6] and in test [7] was greater than 100 µM in each case.
In the case of `CC(N)CN.CC(N)CN.[Cl-].[O]=[Os+2]=[O]` (stereo not given), the GI50 is 64.5 µM in test [1]; greater than 100 µM in test [2]; greater than 100 µM in [3]; greater than 100 µM in [4]; 40.3 µM in [6]. Besides, the TGI in test [1], in [2], in test [3], in test [4] and in test [6] was greater than 100 µM in each case.
Turning to `COc1ccc(C2c3cc4c(c(OC)c3CC3OCC(=O)C32)OCO4)cc1OC` (stereo not given), the GI50 in test [1], in test [2], in test [10] and in test [4] was less than 0.01 µM throughout. For the same molecule, the TGI in test [1] is greater than 100 µM; in test [2], greater than 100 µM; in test [3] it was greater than 100 µM; in [10] it was 0.123 µM; in [4] it was 14.3 µM; in test [5], 0.104 µM. The molecule also displayed a TGI in [7] of 71.7 µM.
Take `CC(C)(C)C1CCC(CI)(N=[N+]=[N-])CC1` (stereo not given): the TGI in [1], in [8], in test [2], in test [4], in test [9] and in [5] was greater than 100 µM throughout. Moreover, the TGI in test [6] and in test [7] was greater than 100 µM throughout.
